According to ChEMBL document CHEMBL3865849, “Development of N-(4-Phenoxyphenyl)benzenesulfonamide Derivatives as Novel Nonsteroidal Progesterone Receptor Antagonists” (ACS Med Chem Lett, 2016):
Active and inactive are the calls of the source. The calls are words filed in the database; no cut-off is given here.

Legend:
[1] = molecular target: T1, Progesterone receptor (Homo sapiens, UniProt P06401); assay: Antagonist activity at progesterone receptor in human T47D cells incubated for 24 hrs in presence of P4 by alkaline phosphatase assay; assay type: cell-based
T1 sequence (P06401 whole entry): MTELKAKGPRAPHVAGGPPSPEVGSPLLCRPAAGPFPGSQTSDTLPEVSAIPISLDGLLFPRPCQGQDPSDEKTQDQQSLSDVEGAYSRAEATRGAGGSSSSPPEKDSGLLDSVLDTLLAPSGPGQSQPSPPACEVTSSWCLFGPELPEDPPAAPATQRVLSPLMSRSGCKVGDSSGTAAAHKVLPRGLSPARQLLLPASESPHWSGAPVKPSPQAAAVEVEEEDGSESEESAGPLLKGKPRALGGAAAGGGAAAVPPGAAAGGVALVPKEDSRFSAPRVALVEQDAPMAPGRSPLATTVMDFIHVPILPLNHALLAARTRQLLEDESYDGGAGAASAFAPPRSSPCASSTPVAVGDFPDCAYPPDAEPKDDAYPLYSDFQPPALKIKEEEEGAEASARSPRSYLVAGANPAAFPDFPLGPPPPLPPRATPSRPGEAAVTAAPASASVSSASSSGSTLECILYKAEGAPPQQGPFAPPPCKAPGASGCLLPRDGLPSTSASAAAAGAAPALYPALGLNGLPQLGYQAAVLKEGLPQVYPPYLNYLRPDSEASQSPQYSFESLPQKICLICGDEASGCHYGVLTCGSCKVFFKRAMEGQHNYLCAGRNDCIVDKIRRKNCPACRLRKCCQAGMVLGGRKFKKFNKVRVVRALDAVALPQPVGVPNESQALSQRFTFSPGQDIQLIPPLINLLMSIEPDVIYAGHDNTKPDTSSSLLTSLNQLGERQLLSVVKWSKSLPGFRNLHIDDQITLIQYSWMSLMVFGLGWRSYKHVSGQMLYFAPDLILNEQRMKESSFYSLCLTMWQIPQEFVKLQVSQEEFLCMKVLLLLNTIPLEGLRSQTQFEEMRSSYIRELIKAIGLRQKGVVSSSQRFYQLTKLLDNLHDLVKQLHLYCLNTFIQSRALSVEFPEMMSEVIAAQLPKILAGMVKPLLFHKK

[2] = molecular target: T1, Progesterone receptor; assay: Displacement of [1,2,6,7-3H]-PG from recombinant human GST-tagged PR-LBD (657 to 933 residues) expressed in baculovirus infected insect cells measured after 24 hrs by liquid scintillation counting method
[3] = molecular target: Estrogen receptor beta (Homo sapiens, UniProt Q92731); assay: Antagonist activity at human Gal4-tagged estrogen receptor-beta LBD expressed in HEK293 cells measured after 24 hrs by luciferase reporter gene assay; assay type: cell-based
[4] = molecular target: T2, Androgen receptor (Homo sapiens, UniProt P10275); assay: Antagonist activity at human AR expressed in HEK293 cells measured after 24 hrs by luciferase reporter gene assay; assay type: cell-based
T2 sequence (P10275 whole entry): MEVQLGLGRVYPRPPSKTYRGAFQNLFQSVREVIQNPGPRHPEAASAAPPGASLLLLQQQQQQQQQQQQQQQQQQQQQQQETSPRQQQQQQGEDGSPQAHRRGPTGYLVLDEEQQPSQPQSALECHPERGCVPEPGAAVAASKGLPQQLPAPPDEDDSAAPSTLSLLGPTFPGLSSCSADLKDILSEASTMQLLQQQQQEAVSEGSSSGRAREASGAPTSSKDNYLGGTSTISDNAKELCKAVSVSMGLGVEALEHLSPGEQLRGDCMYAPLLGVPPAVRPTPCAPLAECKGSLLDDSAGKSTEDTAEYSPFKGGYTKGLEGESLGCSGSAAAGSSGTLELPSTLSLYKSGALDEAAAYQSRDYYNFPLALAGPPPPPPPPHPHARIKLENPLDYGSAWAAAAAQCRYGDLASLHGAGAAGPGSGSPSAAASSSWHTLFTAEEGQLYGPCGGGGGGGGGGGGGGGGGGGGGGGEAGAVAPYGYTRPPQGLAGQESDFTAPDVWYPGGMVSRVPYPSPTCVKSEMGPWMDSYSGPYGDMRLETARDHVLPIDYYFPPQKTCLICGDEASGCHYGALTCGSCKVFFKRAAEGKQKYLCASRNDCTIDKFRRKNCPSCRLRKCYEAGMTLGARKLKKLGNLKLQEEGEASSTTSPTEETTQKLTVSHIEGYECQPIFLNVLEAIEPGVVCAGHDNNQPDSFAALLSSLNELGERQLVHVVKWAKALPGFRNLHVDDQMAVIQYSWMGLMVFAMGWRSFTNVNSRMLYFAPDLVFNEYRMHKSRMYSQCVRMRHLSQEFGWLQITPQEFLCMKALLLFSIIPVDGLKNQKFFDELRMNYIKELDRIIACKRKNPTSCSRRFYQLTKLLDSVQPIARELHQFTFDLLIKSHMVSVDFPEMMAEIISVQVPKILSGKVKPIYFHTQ

[5] = molecular target: T3, Glucocorticoid receptor (Homo sapiens, UniProt P04150); assay: Antagonist activity at human glucocorticoid receptor-alpha expressed in HEK293 cells measured after 24 hrs by luciferase reporter gene assay; assay type: cell-based
T3 sequence (P04150 whole entry): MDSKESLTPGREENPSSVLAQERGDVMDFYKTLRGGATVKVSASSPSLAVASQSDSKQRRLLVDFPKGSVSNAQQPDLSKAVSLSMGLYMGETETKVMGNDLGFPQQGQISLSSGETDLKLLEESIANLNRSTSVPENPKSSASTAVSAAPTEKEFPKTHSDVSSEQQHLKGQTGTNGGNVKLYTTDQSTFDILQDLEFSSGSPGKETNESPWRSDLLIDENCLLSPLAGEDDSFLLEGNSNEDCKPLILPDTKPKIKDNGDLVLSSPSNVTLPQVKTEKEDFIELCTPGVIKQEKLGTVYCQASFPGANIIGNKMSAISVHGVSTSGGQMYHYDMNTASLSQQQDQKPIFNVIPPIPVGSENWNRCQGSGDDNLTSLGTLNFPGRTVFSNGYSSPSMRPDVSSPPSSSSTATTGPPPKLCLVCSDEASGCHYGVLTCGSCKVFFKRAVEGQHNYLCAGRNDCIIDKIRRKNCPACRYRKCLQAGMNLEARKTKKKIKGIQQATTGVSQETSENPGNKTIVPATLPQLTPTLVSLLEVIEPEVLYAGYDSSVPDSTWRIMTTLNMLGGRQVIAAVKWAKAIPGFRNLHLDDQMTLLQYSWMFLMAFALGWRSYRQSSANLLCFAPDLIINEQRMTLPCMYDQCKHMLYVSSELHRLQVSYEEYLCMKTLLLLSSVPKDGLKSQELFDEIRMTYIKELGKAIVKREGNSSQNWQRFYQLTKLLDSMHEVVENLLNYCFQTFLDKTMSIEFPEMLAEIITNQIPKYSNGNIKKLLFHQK

[6] = molecular target: T4, Progesterone receptor (Homo sapiens) (UniProt P06401); assay: Antagonist activity at progesterone receptor in human T47D cells assessed as suppression of P4-induced Na/K-ATPase-beta1 expression level at 1 and 10 uM measured after 16 hrs by Western blot analysis; assay type: cell-based
T4 sequence (whole entry): T1 sequence (P06401 whole entry)

[7] = molecular target: T5, Estrogen receptor (Homo sapiens, UniProt P03372); assay: Antagonist activity at human Gal4-tagged estrogen receptor-alpha LBD expressed in HEK293 cells measured after 24 hrs by luciferase reporter gene assay; assay type: cell-based
T5 sequence (P03372 whole entry): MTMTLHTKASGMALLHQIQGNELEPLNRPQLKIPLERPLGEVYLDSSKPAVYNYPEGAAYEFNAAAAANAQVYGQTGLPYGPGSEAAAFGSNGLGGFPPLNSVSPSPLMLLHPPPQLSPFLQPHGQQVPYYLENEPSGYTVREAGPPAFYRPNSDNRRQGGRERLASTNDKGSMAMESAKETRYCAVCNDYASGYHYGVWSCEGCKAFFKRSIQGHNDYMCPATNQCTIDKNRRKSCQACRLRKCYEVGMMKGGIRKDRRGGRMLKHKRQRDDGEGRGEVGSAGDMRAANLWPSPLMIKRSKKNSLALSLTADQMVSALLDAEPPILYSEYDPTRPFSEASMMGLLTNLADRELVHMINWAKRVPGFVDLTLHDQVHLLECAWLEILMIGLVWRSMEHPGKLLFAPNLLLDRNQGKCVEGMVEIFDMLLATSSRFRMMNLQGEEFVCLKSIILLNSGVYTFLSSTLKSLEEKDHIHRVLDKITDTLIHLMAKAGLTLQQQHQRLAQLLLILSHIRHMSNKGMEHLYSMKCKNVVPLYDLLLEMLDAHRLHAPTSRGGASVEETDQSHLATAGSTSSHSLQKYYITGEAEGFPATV

Estrogen receptor beta, sequence (Q92731 whole entry, the tested form may be a part): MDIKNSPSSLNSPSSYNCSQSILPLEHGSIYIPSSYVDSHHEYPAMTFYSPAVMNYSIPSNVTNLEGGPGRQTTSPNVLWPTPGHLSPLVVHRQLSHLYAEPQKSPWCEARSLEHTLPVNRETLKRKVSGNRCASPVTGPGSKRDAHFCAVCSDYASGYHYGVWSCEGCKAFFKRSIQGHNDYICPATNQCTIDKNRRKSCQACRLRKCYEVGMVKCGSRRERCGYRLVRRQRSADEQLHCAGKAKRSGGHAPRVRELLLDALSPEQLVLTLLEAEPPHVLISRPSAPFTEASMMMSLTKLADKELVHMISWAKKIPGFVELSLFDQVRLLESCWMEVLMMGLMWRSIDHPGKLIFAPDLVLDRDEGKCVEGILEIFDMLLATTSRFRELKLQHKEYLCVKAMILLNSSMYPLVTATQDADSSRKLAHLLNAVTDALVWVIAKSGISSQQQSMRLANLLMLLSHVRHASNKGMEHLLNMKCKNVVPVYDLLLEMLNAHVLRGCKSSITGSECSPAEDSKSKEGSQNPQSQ

Compound | IC50 [1] [nM] | also measured
COc1cccc(Oc2ccc(NS(=O)(=O)c3cccc(Cl)c3)cc2)c1 | 270 | –
COc1ccc(S(=O)(=O)Nc2ccc(Oc3ccccc3)cc2)cc1 | 500 | –
COc1cccc(S(=O)(=O)N(Cc2ccccc2)c2ccc(Oc3ccccc3)cc2)c1 | 2600 | –
CS(=O)(=O)Nc1ccc(Oc2ccccc2)cc1 | 2200 | –
O=S(=O)(Nc1ccc(Oc2ccccc2)cc1)c1cccc(F)c1 | 220 | IC50 [2]: 310 nM
N#Cc1cccc(S(=O)(=O)Nc2ccc(Oc3ccccc3)cc2)c1 | 300 | –
O=S(=O)(Nc1ccc(Oc2ccccc2)cc1)c1ccccc1 | 520 | –
COc1cccc(Oc2ccc(NS(=O)(=O)c3cccc(OC)c3)cc2)c1 | 370 | –
O=S(=O)(Nc1ccc(Oc2ccccc2)cc1)c1ccccc1Cl | 740 | –
O=C(c1ccccc1)c1ccc(NS(=O)(=O)c2cccc(Cl)c2)cc1 | 6000 | IC50 [2]: > 10000 nM
O=S(=O)(c1cccc(Cl)c1)N(Cc1ccccc1)c1ccc(Oc2ccccc2)cc1 | 2200 | –
COc1cccc(S(=O)(=O)Nc2ccc(Oc3ccccc3)cc2)c1 | 250 | –
COc1cccc(S(=O)(=O)Nc2ccc(Oc3ccc(O)cc3)c(C)c2)c1 | 2000 | –
O=S(=O)(Nc1ccc(-c2ccccc2)cc1)c1cccc(Cl)c1 | 330 | IC50 [2]: 110 nM
COc1cccc(C(=O)Nc2ccc(Oc3ccc(O)cc3)c(C)c2)c1 | 5000 | –
O=S(=O)(Nc1ccc(OCc2ccccc2)cc1)c1cccc(Cl)c1 | 810 | –
CN(c1ccc(Oc2ccccc2)cc1)S(=O)(=O)c1ccccc1Cl | 390 | –
O=S(=O)(Nc1ccc(Cc2ccccc2)cc1)c1cccc(Cl)c1 | 450 | –
O=S(=O)(Nc1ccccc1)c1cccc(Cl)c1 | 1500 | –
O=S(=O)(Nc1ccc(Oc2ccccc2)cc1)c1cccc(Br)c1 | 110 | IC50 [2]: 47 nM
COc1ccc(NS(=O)(=O)c2cccc(Cl)c2)cc1 | 820 | –
COc1cccc(Oc2ccc(NS(=O)(=O)c3ccccc3)cc2)c1 | 490 | –
COc1cccc(Oc2ccc(NC(=O)c3ccccc3)cc2)c1 | 3800 | –

Compound | IC50 [1] [nM] | also measured
O=S(=O)(Nc1ccc(Oc2ccccc2)cc1)c1cccc(C(F)(F)F)c1 | 33 | IC50 [3]: 23000 nM; IC50 [4]: 5300 nM; IC50 [2]: 40 nM; IC50 [5]: 12000 nM; inhibition [6]: Active; IC50 [7]: > 30000 nM
O=S(=O)(Nc1ccc(Oc2ccccc2)cc1)c1cccc(Cl)c1Cl | 640 | –
CN(c1ccc(Oc2ccccc2)cc1)S(=O)(=O)c1ccc(Cl)cc1 | 960 | –
O=S(=O)(c1ccc(Cl)cc1)N(Cc1ccccc1)c1ccc(Oc2ccccc2)cc1 | 3000 | –
O=S(=O)(c1ccccc1Cl)N(Cc1ccccc1)c1ccc(Oc2ccccc2)cc1 | 2200 | –
COc1ccc(S(=O)(=O)N(C)c2ccc(Oc3ccccc3)cc2)cc1 | 990 | –
O=S(=O)(Nc1ccc(Oc2ccccc2)cc1)c1ccc(Cl)c(Cl)c1 | 410 | –
COc1cccc(S(=O)(=O)N(C)c2ccc(Oc3ccccc3)cc2)c1 | 470 | –
O=S(=O)(Nc1ccc(Oc2ccccc2)cc1)c1ccc2ccccc2c1 | 1700 | –
Cc1ccc(NS(=O)(=O)c2cccc(Cl)c2)cc1 | 1300 | –
CN(c1ccc(Oc2ccccc2)cc1)S(=O)(=O)c1cccc(Cl)c1 | 650 | –
O=S(=O)(Nc1ccc(Br)cc1)c1cccc(Cl)c1 | 1300 | –
O=[N+]([O-])c1cccc(S(=O)(=O)Nc2ccc(Oc3ccccc3)cc2)c1 | 140 | IC50 [2]: 140 nM
O=S(=O)(Nc1ccc(Oc2ccccc2)cc1)c1cc(Cl)c(Cl)cc1Cl | 1600 | –
O=S(=O)(Nc1ccc(Oc2ccccc2)cc1)c1cccc(Cl)c1 | 170 | IC50 [2]: 62 nM
O=S(=O)(Nc1ccc(Oc2ccccc2)cc1)c1cc(Cl)cc(Cl)c1 | 320 | –
O=S(=O)(Nc1ccc(Oc2ccccc2)cc1)c1ccc(Cl)cc1 | 670 | –
O=C(Nc1ccc(Oc2ccccc2)cc1)c1ccccc1 | 2800 | –
CC(C)c1ccc(NS(=O)(=O)c2cccc(Cl)c2)cc1 | 510 | –
COc1ccc(S(=O)(=O)N(Cc2ccccc2)c2ccc(Oc3ccccc3)cc2)cc1 | 3500 | –
O=S(=O)(Nc1ccc(Oc2ccccc2)cc1)c1cccc2ccccc12 | 190 | –
O=S(=O)(Cc1ccccc1)Nc1ccc(Oc2ccccc2)cc1 | 1600 | –
